Structures can show the parent of a compound that is named as a salt. Starred links: 1 amine or outer side, 2 acyl side, 3 side chain; linkers in the order of their positions; H or OH if unused. Non-standard residues stand in square brackets, D forms with d. Residues, ends and D or L forms follow the SMILES beside them. Groups on a side chain read outwards from the residue. *: point of attachment. DOTA = O=C(O)CN1CCN(CC(=O)O)CCN(CC(=O)*)CCN(CC(=O)O)CC1; NODAGA = O=C(O)CN1CCN(CC(=O)O)CCN(C(CCC(=O)*)C(=O)O)CC1; Phe(4-CH2NH2) = NCc1ccc(C[C@H](N)C(=O)O)cc1; Piperazinyl(4-CH2COOH) = O=C(O)CN1CCN(*)CC1; AEF = NCCOc1ccc(C[C@H](N)C(=O)O)cc1; mTyr = N[C@@H](Cc1cccc(O)c1)C(=O)O; NMeF = CN[C@@H](Cc1ccccc1)C(=O)O; Ahp(2) = CCCCC[C@H](N)C(=O)O; hSer = N[C@@H](CCO)C(=O)O; AEEA = NCCOCCOCC(=O)O; CO = O=C([*:1])[*:2]; Propyl = CCC*
What was measured:
[1] = biological target: T1, mouse FAP (Mus musculus, UniProt P97321); experiment: Enzymatic FAP competition assay (Z-Gly-Pro-AMC fluorescence), mouse FAP; type: biochemical; settings: read-out: m. FAP, Enz., IC50
T1 construct: biotinylated His, Avi tag, mouse FAP (26-761, FAP-M82Q5); His; Avi tag (biotinylated); purchased AcroBiosystems FAP-M82Q5
T1 sequence (P97321 26-761): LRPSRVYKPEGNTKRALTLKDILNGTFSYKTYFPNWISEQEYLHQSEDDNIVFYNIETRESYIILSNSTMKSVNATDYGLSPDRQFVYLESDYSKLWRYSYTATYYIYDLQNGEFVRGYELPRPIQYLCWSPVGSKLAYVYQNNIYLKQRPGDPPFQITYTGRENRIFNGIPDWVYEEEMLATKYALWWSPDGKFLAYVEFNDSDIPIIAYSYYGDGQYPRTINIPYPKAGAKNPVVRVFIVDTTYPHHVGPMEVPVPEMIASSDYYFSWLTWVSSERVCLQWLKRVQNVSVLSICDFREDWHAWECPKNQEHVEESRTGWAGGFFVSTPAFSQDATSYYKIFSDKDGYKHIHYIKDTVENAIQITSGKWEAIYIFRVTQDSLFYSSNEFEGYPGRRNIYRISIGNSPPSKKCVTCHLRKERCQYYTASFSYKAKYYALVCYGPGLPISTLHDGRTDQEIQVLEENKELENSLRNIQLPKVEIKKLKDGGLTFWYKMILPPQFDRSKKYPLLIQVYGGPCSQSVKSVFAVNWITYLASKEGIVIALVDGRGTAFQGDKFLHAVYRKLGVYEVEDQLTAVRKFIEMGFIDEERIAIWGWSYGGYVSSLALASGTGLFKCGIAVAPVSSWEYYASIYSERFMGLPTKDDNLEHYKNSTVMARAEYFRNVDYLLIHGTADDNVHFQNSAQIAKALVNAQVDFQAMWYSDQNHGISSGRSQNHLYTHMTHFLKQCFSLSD
Method: (§1) Peptide potencies (IC50) to inhibit the FAP enzymatic activity were determined using a fluorescence-based assay towards the biotinylated His, Avi tag, human FAP (26-760, FAP-H82Q6) and the biotinylated His, Avi tag, mouse FAP (26-761, FAP-M82Q5). Standard assay conditions consisted of 20 μL total volume in white 384-well plates (Greiner, Ref. 784075), in 50 mM phosphate buffer pH 7.5 containing 150 mM NaCl, 0.05% Tween20 and 1% final DMSO. Tested peptides at 14 different concentrations up to 1 μM were added to 0.01 nM human or mouse FAP. The peptides were incubated for 24 hours together with the protein before adding the substrate 50 μM Z-Gly-Pro-AMC (I-1145 from Bachem). Samples were then incubated at 22-24° C. for 4 h before reading the fluorescence at excitation wavelength of 380 nm and emission wavelength of 460 nm using the Tecan Infinite® M1000 PRO. The high control (100% activity) was not containing any peptide, and an internal potent peptide was added at 10 μM concentration for the low control (100% inhibition). IC50 values were calculated by curve fitting using an in-house developed software (Novartis Helios software application) using the method described by Fomenko et al., 2006 (regression algorithms for nonlinear dose-response curve fitting). Following normalization of activity values for the wells to % inhibition (% inhibition=[(high control-sample)/(high control-low control)]x 100). IC50 fitting was carried out from the duplicated points.

[2] = biological target: T2, human FAP (Homo sapiens, UniProt Q12884); experiment: Enzymatic FAP competition assay (Z-Gly-Pro-AMC fluorescence), human FAP; type: biochemical; settings: read-out: h. FAP, Enz., IC50
T2 construct: the biotinylated His, Avi tag, human FAP (26-760, FAP-H82Q6); His; Avi tag (biotinylated); purchased AcroBiosystems FAP-H82Q6
T2 sequence (Q12884 26-760): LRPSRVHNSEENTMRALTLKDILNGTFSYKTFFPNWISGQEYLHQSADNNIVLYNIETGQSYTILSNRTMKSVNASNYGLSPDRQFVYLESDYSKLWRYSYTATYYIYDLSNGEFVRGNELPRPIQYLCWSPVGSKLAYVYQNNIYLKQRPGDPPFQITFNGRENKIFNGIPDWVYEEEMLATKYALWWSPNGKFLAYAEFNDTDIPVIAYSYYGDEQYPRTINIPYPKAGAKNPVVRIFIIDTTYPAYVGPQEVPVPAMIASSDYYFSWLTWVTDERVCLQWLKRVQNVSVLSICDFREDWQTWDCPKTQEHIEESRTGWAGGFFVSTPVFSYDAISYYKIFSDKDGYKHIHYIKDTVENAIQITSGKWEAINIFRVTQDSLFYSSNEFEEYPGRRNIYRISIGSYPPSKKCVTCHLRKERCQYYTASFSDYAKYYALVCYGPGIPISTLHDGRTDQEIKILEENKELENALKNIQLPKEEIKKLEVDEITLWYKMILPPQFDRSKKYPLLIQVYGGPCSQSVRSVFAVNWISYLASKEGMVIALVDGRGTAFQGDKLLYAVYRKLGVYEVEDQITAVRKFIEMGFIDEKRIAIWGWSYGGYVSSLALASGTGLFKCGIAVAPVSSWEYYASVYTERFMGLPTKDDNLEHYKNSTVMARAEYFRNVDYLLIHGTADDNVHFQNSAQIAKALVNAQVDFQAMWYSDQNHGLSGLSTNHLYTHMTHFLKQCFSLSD
Method: as §1

[3] = biological target: T1, mouse FAP; experiment: Surface plasmon resonance (SPR) for peptide affinity, mouse FAP; type: binding
Method: Peptide affinities (KD) were determined by SPR using a Biacore™ 8K device (Cytiva) towards the following proteins: biotinylated His, Avi tag, human FAP (26-760, FAP-H82Q6), biotinylated His, Avi tag, mouse FAP (26-761, FAP-M82Q5), His tag, human DPP4 (34-766, DP4-H82E3), all purchased from AcroBiosystems and His tag, mouse DPP4 (29-760, 954-SE) from R&D Systems. The FAP proteins and their homologous were diluted to a concentration of 2 μg/mL into acetate buffer pH 5.5, then immobilized onto a CM5 sensorchip (Cytiva, BR-1005-30) to reach a response around 2000 R U. The running buffer HBS-EP+pH 7.6 (20× from Teknova CAT. No: H8022) contained 10 mM HEPES pH 7.6, 150 mM NaCl, 3 mM EDTA, 0.05% Tween20 and 2% DMSO. Experiments were carried out at 25° C. using a flow rate of 30 μL/min. Compounds were tested in single cycle kinetic mode at 8 different concentrations. Curve fitting was performed using the Biacore™ 8K evaluation software. The sensorgrams were fitted by applying a 1:1 binding model to calculate kinetic rate constants and equilibrium dissociation constants (KD).
For this assay, the setup had the same conditions (flow rate, running buffer, peptide dilution) as described above for the CM5 method. The oligo CAP reagent obtained in the CAPture Kit (Ref. 28920234) was 1/5 diluted into running buffer and used with a contact time of 300 s at a flow rate of 2 μL/min. The human and mouse FAP constructs described above were used (from AcroBiosystems or produced in house). The FAP proteins were diluted to a concentration of 2 μg/mL into acetate pH 5.5, 0.05% Tween20 and used with a contact time of 600 s at a flow rate of 10 μL/min. The peptides were tested with an association time of 280 s followed by a dissociation time of 3000 s at a flow rate of 30 μL/min. The regeneration was done using the regeneration solution (8 M guanidine-HCl, 1 M NaOH) as obtained with a contact time of 270 s at a flow rate of 10 μL/min. […] The compounds marked with an asterisk were tested against human and mouse DDP4.

| IC50 [1] [nM] | IC50 [2] [nM] | Kd [3] [nM] | SMILES |
| --- | --- | --- | --- |
| 0.039 | 0.015 | < 0.034 | CCCOCC[C@@H]1NC(=O)[C@H](Cc2ccc(CNC(=O)COCCOCCNC(=O)CCC(C(=O)O)N3CCN(CC(=O)O)CCN(CC(=O)O)CC3)cc2)NC(=O)[C@H](Cc2ccccc2)N(C)C(=O)CNC(=O)CNC(=O)[C@H]2CCCN2C(=O)[C@H](CC(=O)O)NC(=O)[C@H](CCCCNC(=O)N2CCN(CC(=O)O)CC2)NC(=O)CNC(=O)[C@H](Cc2c[nH]c3ccccc23)NC1=O (stereo partly drawn) [Example B33, Gly-Gly-NMePhe-F(4amPEG2NHNODAGA)-hS(pr)-Trp-Gly-K(COpipzaa)-Asp-D-Pro] (cyclo(D[dP]GG[NMeF][Phe(4-CH2NH2)]([AEEA-NODAGA])[hSer](Propyl)WGK([CO-Piperazinyl(4-CH2COOH)]))) |
| 0.37 | 0.092 | 0.239 | CCCCC[C@@H]1NC(=O)[C@H](Cc2ccc(O)cc2)NC(=O)[C@H](Cc2ccccc2)N(C)C(=O)CNC(=O)CNC(=O)[C@H]2CCCN2C(=O)[C@H](CC(=O)O)NC(=O)[C@H](Cc2cccc(O)c2)NC(=O)CNC(=O)[C@H](Cc2c[nH]c3ccccc23)NC1=O [Example A14, Gly-Gly-NMePhe-Tyr-Ahp-Trp-Gly-F(3OH)-Asp-D-Pro] (cyclo([Ahp(2)]WG[mTyr]D[dP]GG[NMeF]Y)) |
| 0.66 | 0.145 | 0.26 | CCCCC[C@@H]1NC(=O)[C@H](Cc2ccc(O)cc2)NC(=O)[C@H](Cc2ccccc2)N(C)C(=O)CNC(=O)[C@H](CO)NC(=O)[C@H]2CCCN2C(=O)[C@H](CC(=O)O)NC(=O)[C@H](Cc2ccc(O)cc2)NC(=O)CNC(=O)[C@H](Cc2c[nH]c3ccccc23)NC1=O [Example A19, Ser-Gly-NMePhe-Tyr-Ahp-Trp-Gly-Tyr-Asp-D-Pro] (cyclo([Ahp(2)]WGYD[dP]SG[NMeF]Y)) |

| SMILES | IC50 [1] [nM] | IC50 [2] [nM] | Kd [3] [nM] |
| --- | --- | --- | --- |
| CCCCC[C@@H]1NC(=O)[C@H](Cc2ccc(OCCNC(=O)CN3CCN(CC(=O)O)CCN(CC(=O)O)CCN(CC(=O)O)CC3)cc2)NC(=O)[C@H](Cc2ccccc2)N(C)C(=O)CNC(=O)CNC(=O)[C@H]2CCCN2C(=O)[C@H](CC(=O)O)NC(=O)[C@H](Cc2ccc(O)cc2)NC(=O)CNC(=O)[C@H](Cc2c[nH]c3ccccc23)NC1=O [Example B23, Gly-Gly-NMePhe-F(4OEtNHDOTA)-Ahp-Trp-Gly-Tyr-Asp-D-Pro, TFA salt] (cyclo([AEF](DOTA)[Ahp(2)]WGYD[dP]GG[NMeF])) | 0.059 | 0.012 | 0.077 |

Source: US20250090699A1, “FAP TARGETING CYCLIC PEPTIDES AND CONJUGATES THEREOF” (Novartis AG, priority 2023, published 2025)
